Results: the supplement of paper PMC8882468
± gives the standard deviation of the averaged measurements.

These compounds were tested on HCI-005.E2 (organoid from a breast cancer xenograft with a HER2-positive history) (assay: CTG-3D luminescence at 96 h relative to day-0 seeding control (ratio to day 0); higher = more growth / less cytotoxicity; PDxO 3D drug screen, 96 h, CTG-3D normalised to day-0 seeding control.). Conditions: 0.00025 µM.

Compound | CTG-3D luminescence at 96 h
C[C@H](NC(=O)CCC(F)(F)F)C(=O)N[C@@H]1C(=O)N(CCO)c2ncccc2-c2ccccc21 [crenigacestat] | 1.76 ± 0.42
COc1cccc2c1C(=O)c1c(O)c3c(c(O)c1C2=O)C[C@@](O)(C(=O)CO)C[C@@H]3O[C@H]1C[C@H](N)[C@H](O)[C@H](C)O1 [doxorubicin] | 1.93 ± 0.33
C[C@]12CC[C@@H]3c4ccc(O)cc4C[C@@H](CCCCCCCCC[S+]([O-])CCCC(F)(F)C(F)(F)F)[C@H]3[C@@H]1CC[C@@H]2O (stereo partly specified) [fulvestrant] | 2.5 ± 1
Nc1ccn([C@@H]2O[C@H](CO)[C@@H](O)C2(F)F)c(=O)n1 [gemcitabine] | 1.96 ± 0.86
C=CC(=O)N1CCC[C@@H](n2nc(-c3ccc(Oc4ccccc4)cc3)c3c(N)ncnc32)C1 [ibrutinib] | 2 ± 0.18
CN(Cc1cnc2nc(N)nc(N)c2n1)c1ccc(C(=O)N[C@@H](CCC(=O)O)C(=O)O)cc1 [methotrexate] | 1.81 ± 0.6
CC1(C)CCC(c2ccc(Cl)cc2)=C(CN2CCN(c3ccc(C(=O)NS(=O)(=O)c4ccc(N[C@H](CCN5CCOCC5)CSc5ccccc5)c(S(=O)(=O)C(F)(F)F)c4)cc3)CC2)C1 [navitoclax] | 1.46 ± 0.075
NC(=O)c1cccc2cn(-c3ccc([C@@H]4CCCNC4)cc3)nc12 [niraparib] | 1.61 ± 0.12

Same assay, conditions: 0.005 µM

Compound | CTG-3D luminescence at 96 h
C[C@H](NC(=O)CCC(F)(F)F)C(=O)N[C@@H]1C(=O)N(CCO)c2ncccc2-c2ccccc21 [crenigacestat] | 1.84 ± 0.24
COc1cccc2c1C(=O)c1c(O)c3c(c(O)c1C2=O)C[C@@](O)(C(=O)CO)C[C@@H]3O[C@H]1C[C@H](N)[C@H](O)[C@H](C)O1 [doxorubicin] | 1.21 ± 0.33
C[C@]12CC[C@@H]3c4ccc(O)cc4C[C@@H](CCCCCCCCC[S+]([O-])CCCC(F)(F)C(F)(F)F)[C@H]3[C@@H]1CC[C@@H]2O (stereo partly specified) [fulvestrant] | 1.79 ± 0.46
Nc1ccn([C@@H]2O[C@H](CO)[C@@H](O)C2(F)F)c(=O)n1 [gemcitabine] | 1.71 ± 0.37
C=CC(=O)N1CCC[C@@H](n2nc(-c3ccc(Oc4ccccc4)cc3)c3c(N)ncnc32)C1 [ibrutinib] | 1.22 ± 0.38
CN(Cc1cnc2nc(N)nc(N)c2n1)c1ccc(C(=O)N[C@@H](CCC(=O)O)C(=O)O)cc1 [methotrexate] | 1.86 ± 0.98
CC1(C)CCC(c2ccc(Cl)cc2)=C(CN2CCN(c3ccc(C(=O)NS(=O)(=O)c4ccc(N[C@H](CCN5CCOCC5)CSc5ccccc5)c(S(=O)(=O)C(F)(F)F)c4)cc3)CC2)C1 [navitoclax] | 1.66 ± 0.36
NC(=O)c1cccc2cn(-c3ccc([C@@H]4CCCNC4)cc3)nc12 [niraparib] | 1.3 ± 0.14

Same assay, conditions: 0.1 µM

Compound | CTG-3D luminescence at 96 h
C[C@H](NC(=O)CCC(F)(F)F)C(=O)N[C@@H]1C(=O)N(CCO)c2ncccc2-c2ccccc21 [crenigacestat] | 1.57 ± 0.45
COc1cccc2c1C(=O)c1c(O)c3c(c(O)c1C2=O)C[C@@](O)(C(=O)CO)C[C@@H]3O[C@H]1C[C@H](N)[C@H](O)[C@H](C)O1 [doxorubicin] | 1.07 ± 0.17
C[C@]12CC[C@@H]3c4ccc(O)cc4C[C@@H](CCCCCCCCC[S+]([O-])CCCC(F)(F)C(F)(F)F)[C@H]3[C@@H]1CC[C@@H]2O (stereo partly specified) [fulvestrant] | 2.34 ± 0.46
Nc1ccn([C@@H]2O[C@H](CO)[C@@H](O)C2(F)F)c(=O)n1 [gemcitabine] | 0.511 ± 0.32
C=CC(=O)N1CCC[C@@H](n2nc(-c3ccc(Oc4ccccc4)cc3)c3c(N)ncnc32)C1 [ibrutinib] | 1.93 ± 0.59
CN(Cc1cnc2nc(N)nc(N)c2n1)c1ccc(C(=O)N[C@@H](CCC(=O)O)C(=O)O)cc1 [methotrexate] | 1.02 ± 0.19
CC1(C)CCC(c2ccc(Cl)cc2)=C(CN2CCN(c3ccc(C(=O)NS(=O)(=O)c4ccc(N[C@H](CCN5CCOCC5)CSc5ccccc5)c(S(=O)(=O)C(F)(F)F)c4)cc3)CC2)C1 [navitoclax] | 1.7 ± 0.3
NC(=O)c1cccc2cn(-c3ccc([C@@H]4CCCNC4)cc3)nc12 [niraparib] | 1.62 ± 0.44

Same assay, conditions: 1 µM

Compound | CTG-3D luminescence at 96 h
C[C@H](NC(=O)CCC(F)(F)F)C(=O)N[C@@H]1C(=O)N(CCO)c2ncccc2-c2ccccc21 [crenigacestat] | 1.33 ± 0.45
COc1cccc2c1C(=O)c1c(O)c3c(c(O)c1C2=O)C[C@@](O)(C(=O)CO)C[C@@H]3O[C@H]1C[C@H](N)[C@H](O)[C@H](C)O1 [doxorubicin] | 0.557 ± 0.044
C[C@]12CC[C@@H]3c4ccc(O)cc4C[C@@H](CCCCCCCCC[S+]([O-])CCCC(F)(F)C(F)(F)F)[C@H]3[C@@H]1CC[C@@H]2O (stereo partly specified) [fulvestrant] | 1.61 ± 0.073
Nc1ccn([C@@H]2O[C@H](CO)[C@@H](O)C2(F)F)c(=O)n1 [gemcitabine] | 0.224 ± 0.069
C=CC(=O)N1CCC[C@@H](n2nc(-c3ccc(Oc4ccccc4)cc3)c3c(N)ncnc32)C1 [ibrutinib] | 1.38 ± 0.56
CN(Cc1cnc2nc(N)nc(N)c2n1)c1ccc(C(=O)N[C@@H](CCC(=O)O)C(=O)O)cc1 [methotrexate] | 0.572 ± 0.073
CC1(C)CCC(c2ccc(Cl)cc2)=C(CN2CCN(c3ccc(C(=O)NS(=O)(=O)c4ccc(N[C@H](CCN5CCOCC5)CSc5ccccc5)c(S(=O)(=O)C(F)(F)F)c4)cc3)CC2)C1 [navitoclax] | 1.24 ± 0.27
NC(=O)c1cccc2cn(-c3ccc([C@@H]4CCCNC4)cc3)nc12 [niraparib] | 1.51 ± 0.31

Same assay, conditions: 10 µM

Compound | CTG-3D luminescence at 96 h
C[C@H](NC(=O)CCC(F)(F)F)C(=O)N[C@@H]1C(=O)N(CCO)c2ncccc2-c2ccccc21 [crenigacestat] | 1.42 ± 0.29
COc1cccc2c1C(=O)c1c(O)c3c(c(O)c1C2=O)C[C@@](O)(C(=O)CO)C[C@@H]3O[C@H]1C[C@H](N)[C@H](O)[C@H](C)O1 [doxorubicin] | -0.00289 ± 0.0012
C[C@]12CC[C@@H]3c4ccc(O)cc4C[C@@H](CCCCCCCCC[S+]([O-])CCCC(F)(F)C(F)(F)F)[C@H]3[C@@H]1CC[C@@H]2O (stereo partly specified) [fulvestrant] | 1.5 ± 0.26
Nc1ccn([C@@H]2O[C@H](CO)[C@@H](O)C2(F)F)c(=O)n1 [gemcitabine] | 0.406 ± 0.096
C=CC(=O)N1CCC[C@@H](n2nc(-c3ccc(Oc4ccccc4)cc3)c3c(N)ncnc32)C1 [ibrutinib] | 0.629 ± 0.11
CN(Cc1cnc2nc(N)nc(N)c2n1)c1ccc(C(=O)N[C@@H](CCC(=O)O)C(=O)O)cc1 [methotrexate] | 0.678 ± 0.16
CC1(C)CCC(c2ccc(Cl)cc2)=C(CN2CCN(c3ccc(C(=O)NS(=O)(=O)c4ccc(N[C@H](CCN5CCOCC5)CSc5ccccc5)c(S(=O)(=O)C(F)(F)F)c4)cc3)CC2)C1 [navitoclax] | 1.21 ± 0.26
NC(=O)c1cccc2cn(-c3ccc([C@@H]4CCCNC4)cc3)nc12 [niraparib] | 1.05 ± 0.24

Same assay, conditions: 100 µM

Compound | CTG-3D luminescence at 96 h
C[C@H](NC(=O)CCC(F)(F)F)C(=O)N[C@@H]1C(=O)N(CCO)c2ncccc2-c2ccccc21 [crenigacestat] | 1.19 ± 0.29
COc1cccc2c1C(=O)c1c(O)c3c(c(O)c1C2=O)C[C@@](O)(C(=O)CO)C[C@@H]3O[C@H]1C[C@H](N)[C@H](O)[C@H](C)O1 [doxorubicin] | -0.00667 ± 0.0021
C[C@]12CC[C@@H]3c4ccc(O)cc4C[C@@H](CCCCCCCCC[S+]([O-])CCCC(F)(F)C(F)(F)F)[C@H]3[C@@H]1CC[C@@H]2O (stereo partly specified) [fulvestrant] | 1.34 ± 0.072
Nc1ccn([C@@H]2O[C@H](CO)[C@@H](O)C2(F)F)c(=O)n1 [gemcitabine] | 0.438 ± 0.083
C=CC(=O)N1CCC[C@@H](n2nc(-c3ccc(Oc4ccccc4)cc3)c3c(N)ncnc32)C1 [ibrutinib] | -0.00377 ± 0.0024
CN(Cc1cnc2nc(N)nc(N)c2n1)c1ccc(C(=O)N[C@@H](CCC(=O)O)C(=O)O)cc1 [methotrexate] | 0.678 ± 0.15
CC1(C)CCC(c2ccc(Cl)cc2)=C(CN2CCN(c3ccc(C(=O)NS(=O)(=O)c4ccc(N[C@H](CCN5CCOCC5)CSc5ccccc5)c(S(=O)(=O)C(F)(F)F)c4)cc3)CC2)C1 [navitoclax] | 0.0085 ± 0.0066
NC(=O)c1cccc2cn(-c3ccc([C@@H]4CCCNC4)cc3)nc12 [niraparib] | -0.00126 ± 0.00038

Same assay, conditions: 625 fM

Compound | CTG-3D luminescence at 96 h
C[C@H](NC(=O)CCC(F)(F)F)C(=O)N[C@@H]1C(=O)N(CCO)c2ncccc2-c2ccccc21 [crenigacestat] | 1.47 ± 0.27
COc1cccc2c1C(=O)c1c(O)c3c(c(O)c1C2=O)C[C@@](O)(C(=O)CO)C[C@@H]3O[C@H]1C[C@H](N)[C@H](O)[C@H](C)O1 [doxorubicin] | 1.71 ± 0.46
C[C@]12CC[C@@H]3c4ccc(O)cc4C[C@@H](CCCCCCCCC[S+]([O-])CCCC(F)(F)C(F)(F)F)[C@H]3[C@@H]1CC[C@@H]2O (stereo partly specified) [fulvestrant] | 1.72 ± 0.46
Nc1ccn([C@@H]2O[C@H](CO)[C@@H](O)C2(F)F)c(=O)n1 [gemcitabine] | 1.65 ± 0.64
C=CC(=O)N1CCC[C@@H](n2nc(-c3ccc(Oc4ccccc4)cc3)c3c(N)ncnc32)C1 [ibrutinib] | 1.61 ± 0.47
CN(Cc1cnc2nc(N)nc(N)c2n1)c1ccc(C(=O)N[C@@H](CCC(=O)O)C(=O)O)cc1 [methotrexate] | 2.1 ± 0.39
CC1(C)CCC(c2ccc(Cl)cc2)=C(CN2CCN(c3ccc(C(=O)NS(=O)(=O)c4ccc(N[C@H](CCN5CCOCC5)CSc5ccccc5)c(S(=O)(=O)C(F)(F)F)c4)cc3)CC2)C1 [navitoclax] | 1.6 ± 0.35
NC(=O)c1cccc2cn(-c3ccc([C@@H]4CCCNC4)cc3)nc12 [niraparib] | 1.35 ± 0.13
